Experimental data from patent US20230382950A1 (priority 2020, published 2023).
Where two headings read alike, the source gives them in different places. *1 amine or outer side, *2 acyl side, *3 side chain or, on linkers, in order; H or OH if unused. Where a SMILES comes first, the peptide text is derived from it. Bridges are numbered along the chain shown (N, C = ends). [ ]: non-standard residue; d: D form. The star is where a group is joined. Ala(piperidin-4-yl) = O=C([C@H](CC1CCN([*:3])CC1)N[*:1])[*:2]; Malonyl(2,2-Me2,histaminyl) = CC(C)(C(=O)NCCc1cnc[nH]1)C(=O)*; dBip = N[C@H](Cc1ccc(-c2ccccc2)cc1)C(=O)O; Oic = O=C(O)[C@@H]1C[C@@H]2CCCC[C@@H]2N1; Phe(4-Br) = N[C@@H](Cc1ccc(Br)cc1)C(=O)O; hArg = N=C(N)NCCCC[C@H](N)C(=O)O; Pip = O=C(O)[C@@H]1CCCCN1; Nle = CCCC[C@H](N)C(=O)O

Columns and labels:
[1] = biological target: T1, human Apelin receptor (Homo sapiens, UniProt P35414); test: cAMP accumulation assay (HTRF), functional agonism, CHO cells stably expressing the human Apelin receptor; format: cell-based; details: for Emax: CHO
T1 sequence (P35414 1-380): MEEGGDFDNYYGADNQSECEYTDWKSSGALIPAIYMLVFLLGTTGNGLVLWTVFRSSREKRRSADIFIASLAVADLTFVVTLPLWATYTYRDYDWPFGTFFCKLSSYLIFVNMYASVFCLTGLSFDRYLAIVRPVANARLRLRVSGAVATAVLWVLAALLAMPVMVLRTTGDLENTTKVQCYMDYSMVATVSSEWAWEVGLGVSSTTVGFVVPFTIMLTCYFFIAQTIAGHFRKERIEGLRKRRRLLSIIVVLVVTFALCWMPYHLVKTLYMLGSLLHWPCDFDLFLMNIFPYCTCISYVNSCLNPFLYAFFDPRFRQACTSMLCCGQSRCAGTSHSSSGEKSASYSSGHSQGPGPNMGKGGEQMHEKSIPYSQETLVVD
Source text: cAMP functional assay. cAMP production was quantified using the Homogeneous Time-Resolved Fluorescence (HTRF) cAMP dynamic-2 assay (Cisbio, France).

[2] = biological target: T1, human Apelin receptor; test: β-arrestin accumulation assay, CHO-K1 cells overexpressing human Apelin receptor and β-arrestin (DiscoverRx); format: cell-based; set-up: host or cells: CHO-K1 cells
Procedure: β-arrestin assay. […] After 16 h incubation at 37° C. media was removed and cells were incubated at 37° C. for 90 min in serum free media containing increasing concentrations of test agonist. The assay reaction was stopped by adding detection reagent (DiscoveRx) and incubation for 60 min in the dark. Levels of receptor activation were then measured on a PheraStar fluorescence plate reader (BMG LabTech) and EC50 values were determined using Graphpad Prism.

Row | Emax ([1]; read-out: Emax) [%] | EC50 ([1]; read-out: pEC50 (converted)) [µM] | EC50 ([2]; read-out: pEC50 (converted)) [µM] | Structure (SMILES) | EC50 [1] [µM] | Emax [1] [%] | EC50 [2] [µM]
1 | 48.2 | 0.00501 | > 10 | CC(C)C[C@H](NC(=O)[C@@H](CCCNC(=N)N)NC(=O)[C@@H]1CCCCN1C(=O)[C@H](CCCCNC(=N)N)NC(=O)[C@H](CCC(N)=O)NC(=O)C(C)(C)C(=O)NCCc1c[nH]cn1)C(=O)N[C@H]1CCC(=O)NCCCC[C@@H](C(=O)N2[C@H](C(=O)N[C@@H](Cc3ccc(Br)cc3)C(=O)N3CCC[C@H]3C(=O)N[C@H](Cc3ccc(-c4ccccc4)cc3)C(=O)O)C[C@@H]3CCCC[C@@H]32)NC(=O)[C@H](CC2CCNCC2)NC(=O)[C@H](Cc2c[nH]cn2)NC1=O [Example 5] ({Malonyl(2,2-Me2,histaminyl)}-Q[hArg][Pip][dR]LEH[Ala(piperidin-4-yl)]K[Oic][Phe(4-Br)]P[dBip]-OH; lactam 6-9) | – | – | –
2 | – | – | – | CC(C)C[C@H](NC(=O)[C@@H](CCCNC(=N)N)NC(=O)[C@@H]1CCCCN1C(=O)[C@H](CCCCNC(=N)N)NC(=O)[C@H](CCC(N)=O)NC(=O)[C@@H](CCCNC(=N)N)NC(=O)C(C)(C)C(=O)NCCc1c[nH]cn1)C(=O)N[C@H]1CCC(=O)NCCCC[C@@H](C(=O)N2[C@H](C(=O)N[C@@H](Cc3ccc(Br)cc3)C(=O)N3CCC[C@H]3C(=O)N[C@H](Cc3ccc(-c4ccccc4)cc3)C(=O)O)C[C@@H]3CCCC[C@@H]32)NC(=O)[C@H](CC2CCNCC2)NC(=O)[C@H](Cc2c[nH]cn2)NC1=O [Example 1] ({Malonyl(2,2-Me2,histaminyl)}-[dR]Q[hArg][Pip][dR]LEH[Ala(piperidin-4-yl)]K[Oic][Phe(4-Br)]P[dBip]-OH; lactam 7-10) | 0.00316 | 70.5 | > 10
3 | – | – | – | CC(C)C[C@@H]1NC(=O)[C@@H](CCCNC(=N)N)NC(=O)[C@@H](NC(=O)[C@H](CCCCNC(=N)N)NC(=O)[C@H](CCC(N)=O)NC(=O)C(C)(C)C(=O)NCCc2c[nH]cn2)CC(=O)NCCCC[C@@H](C(=O)N[C@@H](CC2CCNCC2)C(=O)NCC(=O)N2[C@H](C(=O)N[C@@H](Cc3ccc(Br)cc3)C(=O)N3CCC[C@H]3C(=O)N[C@H](Cc3ccc(-c4ccccc4)cc3)C(=O)O)C[C@@H]3CCCC[C@@H]32)NC(=O)CNC1=O [Example 6] ({Malonyl(2,2-Me2,histaminyl)}-Q[hArg]D[dR]LGK[Ala(piperidin-4-yl)]G[Oic][Phe(4-Br)]P[dBip]-OH; lactam 3-7) | 0.0126 | 30.5 | > 100
4 | 28.4 | 0.1 | > 10 | CCCC[C@H](NC(=O)[C@@H]1C[C@@H]2CCCC[C@@H]2N1C(=O)[C@@H]1CCCCNC(=O)CC[C@H](NC(=O)[C@H](CC(C)C)NC(=O)[C@@H](CCCNC(=N)N)NC(=O)[C@@H]2CCCCN2C(=O)[C@H](CCCCNC(=N)N)NC(=O)[C@H](CCC(N)=O)NC(=O)[C@@H](CCCNC(=N)N)NC(=O)C(C)(C)C(=O)NCCc2c[nH]cn2)C(=O)N[C@@H](Cc2ccc(Br)cc2)C(=O)N[C@@H](CC2CCNCC2)C(=O)N1)C(=O)N1CCC[C@H]1C(=O)N[C@H](Cc1ccc(-c2ccccc2)cc1)C(=O)O [Example 4] ({Malonyl(2,2-Me2,histaminyl)}-[dR]Q[hArg][Pip][dR]LE[Phe(4-Br)][Ala(piperidin-4-yl)]K[Oic][Nle]P[dBip]-OH; lactam 7-10) | – | – | –
5 | – | – | – | CCCC[C@H](NC(=O)[C@@H]1C[C@@H]2CCCC[C@@H]2N1C(=O)[C@@H]1CCCCNC(=O)CC[C@H](NC(=O)[C@H](CC(C)C)NC(=O)[C@@H](CCCNC(=N)N)NC(=O)[C@@H]2CCCCN2C(=O)[C@H](CCCCNC(=N)N)NC(=O)[C@H](CCC(N)=O)NC(=O)[C@@H](CCCNC(=N)N)NC(=O)C(C)(C)C(=O)NCCc2c[nH]cn2)C(=O)N[C@@H](Cc2c[nH]cn2)C(=O)N[C@@H](CC2CCNCC2)C(=O)N1)C(=O)N1CCC[C@H]1C(=O)N[C@H](Cc1ccc(-c2ccccc2)cc1)C(=O)O [Example 2] ({Malonyl(2,2-Me2,histaminyl)}-[dR]Q[hArg][Pip][dR]LEH[Ala(piperidin-4-yl)]K[Oic][Nle]P[dBip]-OH; lactam 7-10) | 0.0158 | 31.2 | > 10
